What was measured:
[1] = test system: Activated CD4 T-cells; test: Cell toxicity in the HIV replication assay (FIG. 4A); conditions: 50 μM, or 100 μM diflunisal
[2] = test system: VSV-G envelope pseudotyped NL4-3 luciferase reporter viruses; test: microbe, parasite or virus in culture; type: cell-based, HIV
[3] = biological target: recombinant p300 (Homo sapiens, UniProt Q09472); test: In vitro HAT assay (histone acetylation, 14C acetyl CoA, autoradiography); type: biochemical; conditions: 1 μg recombinant p300, 10 μg Histone, pre-incubation 30° C. 30 min, densitometry; read-out: IC50 of inhibition of histone acetylation by p300
Description: 1 μg of HAT proteins (p300, CBP, pCAF, GCN5) and 10 μg of Histone were pre-incubated with or without sodium salicylate at various doses in an appropriate buffer (50 mM Hepes, pH 8.0, 10% Glycerol, 1 mM dithiothreitol (DTT)) at 30° C. for 30 min. After the pre-incubation period, 0.05 μCi of ^14C labeled acetyl CoA was added; the mixture was incubated for 1 hour. Samples were subjected to sodium dodecyl sulfate-polyacrylamide electrophoresis (SDS-PAGE). After electrophoresis, the gels were dried. Acetylation signals were detected in the dried gels by autoradiography. Band densities were measured by Image™ software (http://rsbweb(dot)nih(dot)gov/ij/); and the relative histone acetylation was plotted.
1 μg of recombinant p300 and 10 μg of Histone were pre-incubated with or without diflunisal at various doses in an appropriated buffer (50 mM Hepes, pH 8.0, 10% Glycerol, 1 mM DTT) at 30° C. for 30 min. 0.05 μCi of ^14C-labeled acetylCoA was then added, and the mixture was incubated for 1 hour. Histones were separated by SDS-PAGE (FIG. 1, bottom panel). Acetylation of Histone H3 and H4 were detected by autoradiography (FIG. 1, middle panel). […] Three different experimental systems were used to test the effect of diflunisal on HIV transcription and replication.

[4] = test system: p300- and Tat-mediated transactivation of HIV transcription; test: HIV-1 LTR luciferase reporter assay in Hela cells co-transfected with Tat and p300; type: cell-based
Description: An HIV-1 LTR promoter plasmid linked to a luciferase reporter plasmid, with or without the expression vector for HIV-1 Tat and p300, was transfected into cells. Cells were treated with sodium salicylate at same time of transfection. 36 hours later, the cells were lysed with passive lysis buffer (Promega), and luciferase activity was measured using a luminometer.
The effect of diflunisal on HIV transcription was tested. A plasmid containing HIV-1 driving the luciferase reporter was co-transfected into Hela cells with or without expression vectors encoding Tat and/or p300. Co-transfection of the HIV LTR with either Tat or p300 enhanced LTR activity 4 fold (FIG. 2) and 12 fold (FIG. 2) respectively. Co-expression of both Tat and p300 synergistically activated the HIV promoter 48 fold (FIG. 2). […] The IC50 for this inhibition was 80 μM.

[5] = test system: replication-competent NL4-3/GFP virus; test: HIV replication assay (GFP positive cells by flow cytometry); type: cell-based; conditions: activated CD4 T-cells, MOI of 0.3, 50 μM, or 100 μM diflunisal, collected every 2 to 3 days
[6] = cited from earlier work

recombinant p300, sequence (Q09472 whole entry, species assumed): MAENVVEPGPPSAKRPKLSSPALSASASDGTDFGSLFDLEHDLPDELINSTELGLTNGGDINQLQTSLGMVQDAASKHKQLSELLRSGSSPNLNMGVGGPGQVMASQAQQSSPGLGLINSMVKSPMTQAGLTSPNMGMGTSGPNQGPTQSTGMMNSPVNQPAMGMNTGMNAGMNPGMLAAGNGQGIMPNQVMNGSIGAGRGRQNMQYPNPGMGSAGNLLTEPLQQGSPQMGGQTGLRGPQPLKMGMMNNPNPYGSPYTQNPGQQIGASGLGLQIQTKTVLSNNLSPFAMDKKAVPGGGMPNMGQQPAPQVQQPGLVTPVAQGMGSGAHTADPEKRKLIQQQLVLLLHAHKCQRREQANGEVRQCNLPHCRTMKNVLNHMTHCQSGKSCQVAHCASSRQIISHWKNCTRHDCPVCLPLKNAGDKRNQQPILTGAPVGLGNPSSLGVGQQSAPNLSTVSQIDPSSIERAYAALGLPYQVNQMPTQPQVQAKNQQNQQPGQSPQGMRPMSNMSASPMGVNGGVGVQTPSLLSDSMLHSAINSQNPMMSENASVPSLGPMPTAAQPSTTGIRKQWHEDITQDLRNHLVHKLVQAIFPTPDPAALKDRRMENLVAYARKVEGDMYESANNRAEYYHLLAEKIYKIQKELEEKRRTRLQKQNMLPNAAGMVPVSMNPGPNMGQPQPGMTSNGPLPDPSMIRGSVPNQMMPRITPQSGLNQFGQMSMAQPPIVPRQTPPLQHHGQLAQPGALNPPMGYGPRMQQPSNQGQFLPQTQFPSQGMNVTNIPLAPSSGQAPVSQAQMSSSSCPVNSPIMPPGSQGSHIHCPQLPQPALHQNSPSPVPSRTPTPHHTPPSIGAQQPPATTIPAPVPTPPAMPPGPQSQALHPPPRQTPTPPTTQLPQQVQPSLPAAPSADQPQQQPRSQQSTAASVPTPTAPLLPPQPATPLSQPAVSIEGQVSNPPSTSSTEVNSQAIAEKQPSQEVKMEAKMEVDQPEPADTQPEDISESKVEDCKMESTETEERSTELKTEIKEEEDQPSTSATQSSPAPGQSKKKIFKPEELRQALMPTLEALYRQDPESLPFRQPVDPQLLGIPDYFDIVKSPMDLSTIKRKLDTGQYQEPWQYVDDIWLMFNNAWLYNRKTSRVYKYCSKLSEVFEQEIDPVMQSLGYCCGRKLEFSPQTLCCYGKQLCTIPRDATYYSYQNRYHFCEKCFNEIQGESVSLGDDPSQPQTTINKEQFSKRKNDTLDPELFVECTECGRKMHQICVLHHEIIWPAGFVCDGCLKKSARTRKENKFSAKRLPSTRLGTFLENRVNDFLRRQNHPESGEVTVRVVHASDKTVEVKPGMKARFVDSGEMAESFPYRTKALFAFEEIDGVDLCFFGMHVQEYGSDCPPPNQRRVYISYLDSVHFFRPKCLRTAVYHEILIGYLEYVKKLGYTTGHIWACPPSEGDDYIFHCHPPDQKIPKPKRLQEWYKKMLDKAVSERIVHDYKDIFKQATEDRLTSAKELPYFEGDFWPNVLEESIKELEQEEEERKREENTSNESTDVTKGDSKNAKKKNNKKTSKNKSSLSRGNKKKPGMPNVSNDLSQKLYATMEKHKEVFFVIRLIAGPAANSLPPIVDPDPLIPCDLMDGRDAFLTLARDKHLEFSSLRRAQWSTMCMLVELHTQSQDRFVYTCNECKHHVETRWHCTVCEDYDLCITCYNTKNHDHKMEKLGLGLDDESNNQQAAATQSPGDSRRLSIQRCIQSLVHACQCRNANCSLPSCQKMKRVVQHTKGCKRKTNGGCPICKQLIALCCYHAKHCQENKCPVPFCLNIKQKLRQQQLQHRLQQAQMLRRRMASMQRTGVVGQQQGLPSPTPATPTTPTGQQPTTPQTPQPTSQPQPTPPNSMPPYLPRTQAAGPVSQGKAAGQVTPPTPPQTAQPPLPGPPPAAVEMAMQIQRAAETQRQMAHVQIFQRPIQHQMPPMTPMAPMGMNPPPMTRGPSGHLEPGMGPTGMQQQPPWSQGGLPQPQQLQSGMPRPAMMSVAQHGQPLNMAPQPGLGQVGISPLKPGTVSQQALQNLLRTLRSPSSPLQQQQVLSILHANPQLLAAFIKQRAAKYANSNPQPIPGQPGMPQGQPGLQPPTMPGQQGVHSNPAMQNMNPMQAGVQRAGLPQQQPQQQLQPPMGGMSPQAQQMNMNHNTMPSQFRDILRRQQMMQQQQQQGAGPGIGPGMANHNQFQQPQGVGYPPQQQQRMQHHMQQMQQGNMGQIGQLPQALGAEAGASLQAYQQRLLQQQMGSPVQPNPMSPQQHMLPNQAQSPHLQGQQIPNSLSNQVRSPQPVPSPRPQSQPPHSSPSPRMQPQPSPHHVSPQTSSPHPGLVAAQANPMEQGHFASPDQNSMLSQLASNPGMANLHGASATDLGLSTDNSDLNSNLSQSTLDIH

## O=C(O)c1cc(-c2ccc(F)cc2F)ccc1O [Diflunisal, 2′,4′-difluoro-4-hydroxy-3-biphenylcarboxylic acid]
[1]
  Cell toxicity (FIG. 4A): did not show cell toxicity
[2]
  Inhibition of HIV infection (FIG. 3): inhibited HIV infection in a dose dependent manner
[2]; Human immunodeficiency virus 1, NL43, T-cell, 24 h, read-out: IC50 for inhibition of HIV infection
  IC50: 148 µM
[3]
  IC50: 1240 µM
[4]; Human immunodeficiency virus 1, HeLa, read-out: IC50 for inhibition of p300- and Tat-mediated transactivation of HIV transcription
  IC50: 80 µM
[4]; at 0.3 mM, Hela cells
  Block of p300- and Tat-mediated transactivation of HIV transcription: completely blocked
[5]
  Percentage of infected cells (GFP positive cells), FIG. 4B: suppressed and delayed peak of infection in a dose dependent manner
[6]; clinical dosage 0.5-1.0 gram per day
  Plasma trough concentrations: 100 to 300 µM
[6]; in vivo
  Bioavailability: 80-90%
  Half-life: 8 to 12 h
